Reference: PubChem BioAssay (NCI)
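Each compound was tested at five concentrations against cells in 96-well plates for 48 hours. GI50 is the concentration that inhibits growth by half. The concentration for full growth arrest is given as TGI.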

Legend:
Experiment in all cases: NCI anticancer screen, dose series, 48 h
HCC-2998 colon = test system: HCC-2998 colon
T-47D breast = test system: T-47D breast
OVCAR-4 ovarian = test system: OVCAR-4 ovarian
MDA-MB-435 = test system: MDA-MB-435
HT29 colon = test system: HT29 colon
A498 renal = test system: A498 renal
COLO 205 colon = test system: COLO 205 colon
OVCAR-3 ovarian = test system: OVCAR-3 ovarian
OVCAR-5 ovarian = test system: OVCAR-5 ovarian
NCI-H226 lung = test system: NCI-H226 lung
NCI-H522 lung = test system: NCI-H522 lung
HL-60(TB) leukemia = test system: HL-60(TB) leukemia
NCI-H23 lung = test system: NCI-H23 lung
A549 NSCLC = test system: A549 NSCLC
UACC-257 melanoma = test system: UACC-257 melanoma
SK-MEL-28 melanoma = test system: SK-MEL-28 melanoma
RPMI-8226 leukemia = test system: RPMI-8226 leukemia
TK-10 renal = test system: TK-10 renal
EKVX NSCLC = test system: EKVX NSCLC
HS 578T breast = test system: HS 578T breast
SNB-75 CNS = test system: SNB-75 CNS
KM12 colon = test system: KM12 colon
K-562 leukemia = test system: K-562 leukemia
SK-MEL-2 melanoma = test system: SK-MEL-2 melanoma
NCI-H460 lung = test system: NCI-H460 lung
SK-OV-3 ovarian = test system: SK-OV-3 ovarian
PC-3 prostate = test system: PC-3 prostate
UO-31 renal = test system: UO-31 renal
786-0 renal = test system: 786-0 renal
U251 CNS = test system: U251 CNS
SN12C renal = test system: SN12C renal
HCT-15 colon = test system: HCT-15 colon
M14 melanoma = test system: M14 melanoma
MCF7 breast = test system: MCF7 breast
SW-620 colon = test system: SW-620 colon
SNB-19 CNS = test system: SNB-19 CNS
MOLT-4 leukemia = test system: MOLT-4 leukemia
UACC-62 melanoma = test system: UACC-62 melanoma
HOP-92 NSCLC = test system: HOP-92 NSCLC
HCT-116 colon = test system: HCT-116 colon
BT-549 breast = test system: BT-549 breast
ACHN renal = test system: ACHN renal
CCRF-CEM leukemia = test system: CCRF-CEM leukemia
RXF 393 renal = test system: RXF 393 renal
SF-295 CNS = test system: SF-295 CNS
SF-268 CNS = test system: SF-268 CNS
MDA-MB-231 breast = test system: MDA-MB-231 breast
IGROV1 ovarian = test system: IGROV1 ovarian
CAKI-1 renal = test system: CAKI-1 renal
NCI/ADR-RES ovarian = test system: NCI/ADR-RES ovarian
SF-539 CNS = test system: SF-539 CNS
HOP-62 NSCLC = test system: HOP-62 NSCLC
OVCAR-8 ovarian = test system: OVCAR-8 ovarian
SK-MEL-5 melanoma = test system: SK-MEL-5 melanoma
MALME-3M melanoma = test system: MALME-3M melanoma
LOX IMVI melanoma = test system: LOX IMVI melanoma
DU-145 prostate = test system: DU-145 prostate

With `Fc1ccc(-c2cc(-c3cn[nH]c3-c3ccccn3)ccn2)cc1` the GI50 (HCC-2998 colon) was over 25 µM, the TGI (HCC-2998 colon) was over 25 µM and the GI50 (T-47D breast) was over 25 µM. For the same compound, the TGI (T-47D breast) was over 25 µM, the GI50 (OVCAR-4 ovarian) was over 25 µM and the TGI (OVCAR-4 ovarian) was over 25 µM. For the same compound, the GI50 (MDA-MB-435) was over 25 µM, the TGI (MDA-MB-435) was over 25 µM and the GI50 (HT29 colon) was over 25 µM. For the same compound, the TGI (HT29 colon) was over 25 µM, the GI50 (A498 renal) was 24.8 µM and the TGI (A498 renal) was over 25 µM. The GI50 (COLO 205 colon) was over 25 µM, the TGI (COLO 205 colon) was over 25 µM and the GI50 (OVCAR-3 ovarian) was over 25 µM. It also gave a TGI (OVCAR-3 ovarian) of over 25 µM, a GI50 (OVCAR-5 ovarian) of over 25 µM and a TGI (OVCAR-5 ovarian) of over 25 µM. For the same compound, the GI50 (NCI-H226 lung) was over 25 µM, the TGI (NCI-H226 lung) was over 25 µM and the GI50 (NCI-H522 lung) was over 25 µM. For the same compound, the TGI (NCI-H522 lung) was over 25 µM, the GI50 (HL-60(TB) leukemia) was over 25 µM and the TGI (HL-60(TB) leukemia) was over 25 µM. For the same compound, the GI50 (NCI-H23 lung) was over 12.8 µM, the TGI (NCI-H23 lung) was over 25 µM and the GI50 (A549 NSCLC) was over 25 µM. For the same compound, the TGI (A549 NSCLC) was over 25 µM, the GI50 (UACC-257 melanoma) was over 25 µM and the TGI (UACC-257 melanoma) was over 25 µM. For the same compound, the GI50 (SK-MEL-28 melanoma) was over 25 µM, the TGI (SK-MEL-28 melanoma) was over 25 µM and the GI50 (RPMI-8226 leukemia) was over 25 µM. The TGI (RPMI-8226 leukemia) was over 25 µM, the GI50 (TK-10 renal) was over 25 µM and the TGI (TK-10 renal) was over 25 µM. The GI50 (EKVX NSCLC) was over 25 µM, the TGI (EKVX NSCLC) was over 25 µM and the GI50 (HS 578T breast) was over 25 µM. For the same compound, the TGI (HS 578T breast) was over 25 µM, the GI50 (SNB-75 CNS) was over 25 µM and the TGI (SNB-75 CNS) was over 25 µM. It also gave a GI50 (KM12 colon) of over 25 µM, a TGI (KM12 colon) of over 25 µM and a GI50 (K-562 leukemia) of over 25 µM. It also gave a TGI (K-562 leukemia) of over 25 µM, a GI50 (SK-MEL-2 melanoma) of over 25 µM and a TGI (SK-MEL-2 melanoma) of over 25 µM. The GI50 (NCI-H460 lung) was 24.7 µM, the TGI (NCI-H460 lung) was over 25 µM and the GI50 (SK-OV-3 ovarian) was over 25 µM. For the same compound, the TGI (SK-OV-3 ovarian) was over 25 µM, the GI50 (PC-3 prostate) was over 25 µM and the TGI (PC-3 prostate) was over 25 µM. It also gave a GI50 (UO-31 renal) of over 25 µM, a TGI (UO-31 renal) of over 25 µM and a GI50 (786-0 renal) of over 22.6 µM. It also gave a TGI (786-0 renal) of over 25 µM, a GI50 (U251 CNS) of over 25 µM and a TGI (U251 CNS) of over 25 µM. It also gave a GI50 (SN12C renal) of over 25 µM, a TGI (SN12C renal) of over 25 µM and a GI50 (HCT-15 colon) of over 25 µM. It also gave a TGI (HCT-15 colon) of over 25 µM, a GI50 (M14 melanoma) of over 17 µM and a TGI (M14 melanoma) of over 25 µM. The GI50 (MCF7 breast) was over 25 µM, the TGI (MCF7 breast) was over 25 µM and the GI50 (SW-620 colon) was over 25 µM. The TGI (SW-620 colon) was over 25 µM, the GI50 (SNB-19 CNS) was over 25 µM and the TGI (SNB-19 CNS) was over 25 µM. The GI50 (MOLT-4 leukemia) was over 25 µM, the TGI (MOLT-4 leukemia) was over 25 µM and the GI50 (UACC-62 melanoma) was over 25 µM. It also gave a TGI (UACC-62 melanoma) of over 25 µM, a GI50 (HOP-92 NSCLC) of 24.6 µM and a TGI (HOP-92 NSCLC) of over 25 µM. It also gave a GI50 (HCT-116 colon) of over 17.3 µM, a TGI (HCT-116 colon) of over 25 µM and a GI50 (BT-549 breast) of over 25 µM. It also gave a TGI (BT-549 breast) of over 25 µM, a GI50 (ACHN renal) of over 25 µM and a TGI (ACHN renal) of over 25 µM. For the same compound, the GI50 (CCRF-CEM leukemia) was over 25 µM, the TGI (CCRF-CEM leukemia) was over 25 µM and the GI50 (RXF 393 renal) was over 25 µM. It also gave a TGI (RXF 393 renal) of over 25 µM, a GI50 (SF-295 CNS) of over 25 µM and a TGI (SF-295 CNS) of over 25 µM. It also gave a GI50 (SF-268 CNS) of over 25 µM, a TGI (SF-268 CNS) of over 25 µM and a GI50 (MDA-MB-231 breast) of over 25 µM. The TGI (MDA-MB-231 breast) was over 25 µM, the GI50 (IGROV1 ovarian) was over 25 µM and the TGI (IGROV1 ovarian) was over 25 µM. It also gave a GI50 (CAKI-1 renal) of over 25 µM, a TGI (CAKI-1 renal) of over 25 µM and a GI50 (NCI/ADR-RES ovarian) of over 19.5 µM. For the same compound, the TGI (NCI/ADR-RES ovarian) was over 25 µM, the GI50 (SF-539 CNS) was over 25 µM and the TGI (SF-539 CNS) was over 25 µM. It also gave a GI50 (HOP-62 NSCLC) of over 25 µM, a TGI (HOP-62 NSCLC) of over 25 µM and a GI50 (OVCAR-8 ovarian) of over 25 µM. For the same compound, the TGI (OVCAR-8 ovarian) was over 25 µM, the GI50 (SK-MEL-5 melanoma) was over 25 µM and the TGI (SK-MEL-5 melanoma) was over 25 µM. The GI50 (MALME-3M melanoma) was over 25 µM, the TGI (MALME-3M melanoma) was over 25 µM and the GI50 (LOX IMVI melanoma) was over 25 µM. The TGI (LOX IMVI melanoma) was over 25 µM, the GI50 (DU-145 prostate) was over 25 µM and the TGI (DU-145 prostate) was over 25 µM.
